Source: PubChem BioAssay AID330 (DTP/NCI, 2004)
Values joined by “and” are separate entries in the source; they are usually repeats but may differ in a detail not shown here. Identical values can stand only once. Toxic doses and inconclusive results are not listed. The calls were made as follows: active = survival T/C of 150% or more; inactive = T/C below 125% in these data.

Test system: P388 leukemia ip, CD2F1 mice, survival T/C
Test: NCI In Vivo Anticancer Drug Screen. Data for tumor model P388 Leukemia (intraperitoneal) in CD2F1 (CDF1) mice
Details: endpoint: median survival time, higher = longer survival
Outline: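 Mice carrying the transplanted tumor received test compound or vehicle. Survival was recorded in each group, and the value is the treated-group measurement divided by that of the vehicle-treated control group.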

[1] = dose: 50.0 mg/kg/injection, schedule: Q01DX009 (ip), vehicle: saline
[2] = dose: 100.0 mg/kg/injection, schedule: Q01DX009 (ip), vehicle: saline
[3] = dose: 50.0 mg/kg/injection, schedule: Q01DX005 (ip), vehicle: Klucel (hydroxypropylcellulose) (HPC)
[4] = dose: 100.0 mg/kg/injection, schedule: Q01DX005 (ip), vehicle: Klucel (hydroxypropylcellulose) (HPC)
[5] = dose: 200.0 mg/kg/injection, schedule: Q01DX005 (ip), vehicle: Klucel (hydroxypropylcellulose) (HPC)
[6] = dose: 60.0 mg/kg/injection, schedule: Q01DX005 (ip), vehicle: saline with Tween-80
[7] = dose: 120.0 mg/kg/injection, schedule: Q01DX005 (ip), vehicle: saline with Tween-80
[8] = dose: 50.0 mg/kg/injection, schedule: Q01DX005 (ip), vehicle: saline with Tween-80
[9] = dose: 100.0 mg/kg/injection, schedule: Q01DX005 (ip), vehicle: saline with Tween-80
[10] = dose: 200.0 mg/kg/injection, schedule: Q01DX005 (ip), vehicle: saline with Tween-80
[11] = dose: 200.0 mg/kg/injection, schedule: Q01DX009 (ip), vehicle: saline
[12] = dose: 50.0 mg/kg/injection, schedule: Q01DX009 (ip), vehicle: saline with Tween-80
[13] = dose: 100.0 mg/kg/injection, schedule: Q01DX009 (ip), vehicle: saline with Tween-80

Measured: T/C

CCCCCCCCCCCCCCS[As](C)C
inactive: dose: 25.0 mg/kg/injection, schedule: Q04DX002 (ip), vehicle: Klucel (hydroxypropylcellulose) (HPC) 101 % of control | dose: 50.0 mg/kg/injection, schedule: Q04DX002 (ip), vehicle: Klucel (hydroxypropylcellulose) (HPC) 94 % of control | dose: 100.0 mg/kg/injection, schedule: Q04DX002 (ip), vehicle: Klucel (hydroxypropylcellulose) (HPC) 90 % of control and 92 % of control | dose: 400.0 mg/kg/injection, schedule: Q04DX002 (ip), vehicle: Klucel (hydroxypropylcellulose) (HPC) 91 % of control

CCN(CC)CCOCc1cccc2c(=O)cc(-c3ccccc3)oc12
inactive: [1] 105 % of control | [2] 101 % of control

CC(=NCCCCCCN=C(C)c1cc(O)ccc1O)c1cc(O)ccc1O
inactive: [3] 92 % of control | [4] 94 % of control | [5] 87 % of control

O=C(/C=C/c1c[nH]c2ccccc12)c1ccccc1O
inactive: [6] 98 % of control | [7] 90 % of control | dose: 240.0 mg/kg/injection, schedule: Q01DX005 (ip), vehicle: saline with Tween-80 98 % of control

c1cnc(NC(Nc2cnccn2)C2CCCCC2)cn1
inactive: dose: 60.0 mg/kg/injection, schedule: Q01DX005 (ip), vehicle: Klucel (hydroxypropylcellulose) (HPC) 96 % of control | dose: 120.0 mg/kg/injection, schedule: Q01DX005 (ip), vehicle: Klucel (hydroxypropylcellulose) (HPC) 100 % of control | dose: 240.0 mg/kg/injection, schedule: Q01DX005 (ip), vehicle: Klucel (hydroxypropylcellulose) (HPC) 107 % of control

C/C(=N\NC(=S)Nc1nccs1)c1ccc2ccccc2n1
inactive: [8] 102 % of control | [9] 100 % of control | [10] 113 % of control

COC(=O)/C=C/c1cccn1C(=O)c1c(Cl)cccc1Cl
inactive: [8] 97 % of control | [9] 98 % of control | [10] 87 % of control

[Cl][Ni][Cl].c1ccc2[nH]cnc2c1.c1ccc2[nH]cnc2c1
inactive: dose: 6.25 mg/kg/injection, schedule: Q01DX005 (ip), vehicle: saline with Tween-80 95 % of control | dose: 12.5 mg/kg/injection, schedule: Q01DX005 (ip), vehicle: saline with Tween-80 90 % of control | dose: 25.0 mg/kg/injection, schedule: Q01DX005 (ip), vehicle: saline with Tween-80 92 % of control

CCOc1ccc2c(=O)c(C(=O)O)c[nH]c2c1
inactive: [1] 107 % of control | [2] 107 % of control | [11] 108 % of control

O=C(NCC1OC(n2cnc3c(=O)[nH]cnc32)C(O)C1O)c1cccc(S(=O)(=O)F)c1 (centres undefined)
inactive: dose: 50.0 mg/kg/injection, schedule: Q01DX001 (ip), vehicle: saline with Tween-80 101 % of control | dose: 100.0 mg/kg/injection, schedule: Q01DX001 (ip), vehicle: saline with Tween-80 111 % of control | dose: 200.0 mg/kg/injection, schedule: Q01DX001 (ip), vehicle: saline with Tween-80 100 % of control

CC1(C)CC(=O)C(C(c2cccc([N+](=O)[O-])c2)C2C(=O)CC(C)(C)CC2=O)C(=O)C1
inactive: [3] 96 % of control | [4] 98 % of control | [5] 102 % of control

O=[N+]([O-])c1cccc(N/N=C\c2c(Cl)[nH]c3ccccc23)c1
inactive: dose: 12.5 mg/kg/injection, schedule: Q01DX001 (ip), vehicle: Klucel (hydroxypropylcellulose) (HPC) 102 % of control | dose: 25.0 mg/kg/injection, schedule: Q01DX001 (ip), vehicle: Klucel (hydroxypropylcellulose) (HPC) 93 % of control | dose: 50.0 mg/kg/injection, schedule: Q01DX001 (ip), vehicle: Klucel (hydroxypropylcellulose) (HPC) 89 % of control | dose: 100.0 mg/kg/injection, schedule: Q01DX001 (ip), vehicle: Klucel (hydroxypropylcellulose) (HPC) 86 % of control

CCCCC(C)C(=O)/C=C/c1ccc(Cl)c(Cl)c1 (centres undefined)
inactive: [12] 105 % of control | [13] 100 % of control | dose: 200.0 mg/kg/injection, schedule: Q01DX009 (ip), vehicle: saline with Tween-80 106 % of control

Cc1c(N=Nc2cccc(F)c2)c(-c2ccccc2)nn1C(=S)S
inactive: [8] 117 % of control | [9] 111 % of control | [10] 104 % of control

Cn1c(=O)c2c(CCCC(=O)O)onc2n(C)c1=O
inactive: dose: 25.0 mg/kg/injection, schedule: Q01DX009 (ip), vehicle: saline with Tween-80 96 % of control | [12] 93 % of control | [13] 90 % of control

CC1(C)CC([N+](C)(C)CCCCCC[N+](C)(C)C2CC(C)(C)N(O)C(C)(C)C2)CC(C)(C)N1O
inactive: dose: 12.5 mg/kg/injection, schedule: Q04DX003 (ip), vehicle: saline 105 % of control | dose: 25.0 mg/kg/injection, schedule: Q04DX003 (ip), vehicle: saline 100 % of control | dose: 50.0 mg/kg/injection, schedule: Q04DX003 (ip), vehicle: saline 103 % of control and 108 % of control

CCOC(=O)C1C(=O)[C@H](C(=O)OC)C2CCCC3CCCC1N32 (some centres undefined)
inactive: [6] 86 % of control | [7] 87 % of control

CCOC(=O)c1ccc2nc(/N=C/c3ccccc3Cl)sc2c1
inactive: [1] 105 % of control | [2] 108 % of control | [11] 105 % of control
